Test [1] deals with IVF/ICSI patients. Conditions: cited from earlier work.
For test [2], the system named is IVF/ICSI patients. Kind of test: BASIC randomized, placebo-controlled, double-blind clinical trial: barusiban subcutaneously on the day of transfer, implantation in IVF/ICSI patients. The class given is in vivo, human. From the text: Example 1: A randomized, placebo-controlled, double-blind, parallel groups, multinational, multicenter trial assessing the effect of barusiban administered subcutaneously on the day of transfer on implantation and pregnancy rates in IVF/ICSI patients
BASIC was a randomized, double-blind, placebo-controlled, parallel groups, multinational, multicenter trial. It was designed to evaluate the effects of barusiban, administered either on the day of cleavage-stage embryo transfer or on the day of blastocyst transfer, on ongoing implantation rate in IVF/ICSI patients. The patients underwent controlled ovarian stimulation in the long GnRH agonist or GnRH antagonist protocol, received hCG for triggering of final follicular maturation, had undergone oocyte retrieval, and had daily luteal phase support by supplementation with vaginal progesterone starting on day 1 post-retrieval, and transfer on day 3 or 5 post-retrieval. Patients were randomized in a 1:1 ratio to either the barusiban group or the placebo group, with stratification according to the day of transfer (day 3 post-retrieval or day 5 post-retrieval) and the number of embryos/blastocysts to be transferred (1 or 2). In total, 255 IVF/ICSI patients were randomized in the trial and contributing with 440 embryos/blastocysts.
Investigational medicinal product, i.e., barusiban or placebo according to randomization, was administered as subcutaneous injections at two time points: 1st administration of 40 mg barusiban or placebo was […] prior to transfer and the 2nd administration of 10 mg barusiban or placebo was […] after the 1st administration.
Transfer was performed on day 3 (cleavage-stage embryos) or day 5 (blastocysts) after oocyte retrieval. On day 3, only embryos of good quality defined as ≥6 blastomeres and ≤20% fragmentation were transferred. On day 5, blastocysts with expansion and hatching status 3, 4, 5 or 6 were transferred. The actual number of transferred embryos/blastocysts for each individual patient depended on the availability of embryos; blastocysts of the required morphological quality, local regulations and clinical practice for the patient's age, but the maximum number was 2.
Key aspects related to the transfer procedure had been standardized. A speculum was inserted into the vagina and cleaning of the vagina and cervix was done according to local practices but with minimal manipulation and disturbance. Soft or ultrasoft catheters were used. The outer sheath of the catheter was inserted just protruding to the internal os (i.e. keeping the outer sheath in the cervical canal). The embryo(s)/blastocyst(s) were loaded into the inner sheath which was then inserted through the outer sheath. Using abdominal ultrasound guidance, the embryo(s)/blastocyst(s) were placed 1.5-2.0 cm from the fundus. The time from loading the inner catheter to placing the embryo(s)/blastocyst(s) should not have exceeded 1 min. After placement, the inner and outer catheters were withdrawn and checked for retained embryo(s)/blastocyst(s), mucus and blood. After confirmation that there were no embryo(s)/blastocyst(s) left in the catheters, the speculum was subsequently removed; this occurred approximately within 2 min after placement of the embryo(s)/blastocyst(s). Any difficulties/eventualities occurring during the transfer procedure were recorded.
Patients received vaginal progesterone tablets 100 mg twice daily from the day after oocyte retrieval and until the day of the clinical pregnancy visit. On the day of transfer, patients should insert the progesterone tablets at least 3 hours before transfer and at least 3 hours after transfer. Ongoing implantation rate (primary endpoint) was defined as the number of intrauterine viable fetuses 10-11 weeks after transfer divided by number of embryos/blastocysts transferred. […]

Where a SMILES comes first, the peptide text is derived from it. Bridges are numbered along the chain shown (N, C = ends). [ ]: non-standard residue; d: D form. Orn = NCCC[C@H](N)C(=O)O; Mpa = O=C(O)CCS

On to `CCOc1ccc(C[C@H]2NC(=O)CCSSC[C@@H](C(=O)N3CCC[C@H]3C(=O)N[C@@H](CCCN)C(=O)NCC(N)=O)NC(=O)[C@H](CC(N)=O)NC(=O)[C@H]([C@@H](C)O)NC(=O)[C@H]([C@@H](C)CC)NC2=O)cc1` [atosiban, 1-(3-mercaptopropanoic acid)-2-(O-ethyl-D-tyrosine)-4-L-threonine-8-L-ornithine-oxytocin] ([Mpa][dY](Et)ITNCP[Orn]G-NH2; disulfide 1-6), for which, in the test on IVF/ICSI patients [1] (administration on day 2 or day 3 post-retrieval (early luteal phase)), the “increase in implantation or live birth rates compared to placebo” value is “no significant increase”. In addition, the live birth rate in the test with IVF/ICSI patients [1] (cleavage-stage embryo transfer on day 2 or day 3 post-retrieval, N=800, placebo 38.0%) is listed as 39.8%.
As to barusiban, the “effect on improving ongoing implantation rate” value with IVF/ICSI patients [2] (blastocyst transfer on day 5 (receptive stage), p=0.0270) is recorded as “significant”. For the same compound, the “odds ratio for ongoing implantation rate” value came out at 2.3 in the test on IVF/ICSI patients [2] (blastocyst transfer on day 5 post-retrieval, vs placebo, CI 1.1-4.7, p=0.0270); 0.3 with IVF/ICSI patients [2] (cleavage-stage embryo transfer on day 3 post-retrieval, vs placebo, CI 0.3-1.2, p=0.1509); 1.1 in the test with IVF/ICSI patients [2] (overall (day 3+day 5), barusiban vs placebo, logistic regression, PP, 95% CI 0.7-1.8, p=0.6960). In addition, the “relative Δ of ongoing implantation rate vs placebo” value with IVF/ICSI patients [2] (blastocyst transfers (day 5), adjusted means 45% vs 27%) was 67%. The “adjusted mean of ongoing implantation rate” value in the test with IVF/ICSI patients [2] (blastocyst transfers (day 5 post-retrieval), placebo 27%) was found to be 45%. In addition, in the test on IVF/ICSI patients [2] (cleavage-stage embryo transfer on day 3 (pre-receptive stage)), the “effect on ongoing implantation rate” value is on record as “No effect”. Moreover, in the test with IVF/ICSI patients [2] (overall (day 3+day 5 transfers), per-protocol population, 40 mg + 10 mg s.c. on day of transfer), the “observed overall ongoing implantation rate” value is recorded as 27.1%. Moreover, the ongoing implantation rate in the test with IVF/ICSI patients [2] (overall, intention-to-treat (ITT) population) was determined as 26.2%.
